# From ChEMBL document CHEMBL1130277, “Three-dimensional quantitative structure-activity relationships from molecular similarity matrices and genetic neural networks. 2. Applications” (J Med Chem, 1997)
# Biological target: Acetylcholinesterase (Homo sapiens, UniProt P22303)
# Sequence (P22303 whole entry): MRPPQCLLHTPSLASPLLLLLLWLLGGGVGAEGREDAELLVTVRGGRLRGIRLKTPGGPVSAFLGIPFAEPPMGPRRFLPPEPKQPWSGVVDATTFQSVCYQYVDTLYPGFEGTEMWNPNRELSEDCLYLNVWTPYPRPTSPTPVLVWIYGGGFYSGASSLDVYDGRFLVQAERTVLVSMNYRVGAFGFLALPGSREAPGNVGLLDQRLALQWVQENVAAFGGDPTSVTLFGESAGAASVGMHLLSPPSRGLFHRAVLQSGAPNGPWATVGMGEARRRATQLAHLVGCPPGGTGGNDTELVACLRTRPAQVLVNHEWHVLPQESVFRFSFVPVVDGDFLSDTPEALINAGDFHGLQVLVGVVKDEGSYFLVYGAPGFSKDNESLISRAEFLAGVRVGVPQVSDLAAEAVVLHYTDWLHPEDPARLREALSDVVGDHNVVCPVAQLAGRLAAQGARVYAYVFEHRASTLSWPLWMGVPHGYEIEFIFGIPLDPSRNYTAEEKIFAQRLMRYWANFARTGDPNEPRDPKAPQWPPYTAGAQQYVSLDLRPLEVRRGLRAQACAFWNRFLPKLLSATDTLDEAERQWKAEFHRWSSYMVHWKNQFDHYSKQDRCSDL
# Description: Inhibition acetylcholinesterase (AChE) enzyme.
row,SMILES,IC50 [µM]
1,CCOCC[N+](C)(C)C,1160
2,C=CCC[N+](C)(C)C,847
3,C=CC[N+](C)(C)C,2920
4,C[N+](C)(C)CCS,440
5,COc1cccc([N+](C)(C)C)c1,597
6,CCCCCC[N+](C)(C)C,817
7,CCC(=O)Oc1cccc([N+](C)(C)C)c1,5.97
8,CCSCC[N+](C)(C)C,1510
9,CCC(=O)Oc1ccc(C)c([N+](C)(C)C)c1,69
10,CCC(=O)Oc1cccc([N+](C)(C)C)c1C,753
11,CC(=O)Oc1cccc([N+](C)(C)C)c1C,40.8
12,COc1ccc(C)c([N+](C)(C)C)c1,345
13,CC(=O)CCC[N+](C)(C)C,84.7
14,CC(=O)Nc1cccc([N+](C)(C)C)c1,1000
15,Cc1ccc([N+](C)(C)C)cc1O,3.11
16,Cc1ccc(O)cc1[N+](C)(C)C,2.82
17,CCC(=O)Oc1cc([N+](C)(C)C)ccc1C,3.77
18,COc1cc([N+](C)(C)C)ccc1C,122
19,C[N+]1(C)CCO[C@@](O)(c2ccc(N)cc2)C1,690
20,CC(=O)Oc1cc([N+](C)(C)C)ccc1C,0.659
21,C[N+](C)(C)CCCBr,87.9
22,CCCC(=O)SCC[N+](C)(C)C,126

row,SMILES,IC50 [µM]
1,C=CCCC[N+](C)(C)C,1130
2,C[N+](C)(C)c1cccc(N)c1,192
3,C[N+]1(C)CCO[C@@](O)(c2ccc(C#N)cc2)C1,11600
4,COc1cccc([N+](C)(C)C)c1C,239
5,C[N+]1(C)CCO[C@@](O)(c2ccc(Cl)cc2)C1,8130
6,C[N+](C)(C)CCCCI,471
7,CC(=O)Oc1ccc(C)c([N+](C)(C)C)c1,5.33
8,C[N+](C)(C)CCCl,2390
9,CC(=O)Nc1ccc([C@@]2(O)C[N+](C)(C)CCO2)cc1,2070
10,CCCC(=O)OCC[N+](C)(C)C,229
11,C[C@@]1(O)C[N+](C)(C)CCO1,1730
12,Cc1c(O)cccc1[N+](C)(C)C,141
13,CC(=O)Oc1cccc([N+](C)(C)C)c1,3.01
14,C[N+](C)(C)CCCCCBr,535
15,C[N+]1(C)CCO[C@@](O)(C(F)(F)F)C1,3830
16,C[N+](C)(C)CCCCBr,597
17,C[N+]1(C)CCO[C@H](O)C1,1760
18,C[N+](C)(C)c1cccc(O)c1,0.973
19,CC(C)(C)[C@@]1(O)C[N+](C)(C)CCO1,3710
20,C[N+](C)(C)c1cccc([N+](=O)[O-])c1,628
21,C[N+]1(C)CCO[C@@](O)(c2ccc([N+](=O)[O-])cc2)C1,5120

# Biological target: T1, Aryl hydrocarbon receptor (Homo sapiens, UniProt P35869)
# T1 sequence (P35869 whole entry): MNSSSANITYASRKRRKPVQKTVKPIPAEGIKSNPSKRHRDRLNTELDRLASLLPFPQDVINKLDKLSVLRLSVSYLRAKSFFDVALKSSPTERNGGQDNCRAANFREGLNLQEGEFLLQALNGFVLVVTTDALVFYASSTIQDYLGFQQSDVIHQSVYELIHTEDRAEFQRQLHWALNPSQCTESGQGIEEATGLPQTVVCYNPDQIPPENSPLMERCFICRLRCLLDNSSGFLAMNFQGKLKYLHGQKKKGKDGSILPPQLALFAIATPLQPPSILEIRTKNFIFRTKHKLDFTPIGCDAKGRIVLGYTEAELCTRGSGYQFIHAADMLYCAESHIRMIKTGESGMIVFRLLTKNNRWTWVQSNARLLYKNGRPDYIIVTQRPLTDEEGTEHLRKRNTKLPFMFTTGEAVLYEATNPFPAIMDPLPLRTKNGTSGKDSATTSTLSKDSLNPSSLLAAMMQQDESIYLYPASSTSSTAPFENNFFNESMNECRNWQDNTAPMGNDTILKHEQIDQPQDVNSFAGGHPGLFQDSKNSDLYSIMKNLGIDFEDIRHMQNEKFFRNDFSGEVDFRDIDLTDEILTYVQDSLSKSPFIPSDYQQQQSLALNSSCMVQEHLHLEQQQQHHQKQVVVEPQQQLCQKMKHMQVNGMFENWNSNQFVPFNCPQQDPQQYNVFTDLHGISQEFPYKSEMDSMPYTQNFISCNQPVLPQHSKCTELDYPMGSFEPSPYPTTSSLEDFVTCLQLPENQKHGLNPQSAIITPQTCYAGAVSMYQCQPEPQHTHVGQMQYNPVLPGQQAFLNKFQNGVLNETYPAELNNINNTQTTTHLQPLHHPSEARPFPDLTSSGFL
# Description: Affinity on cytosolic Aromatic hydrocarbon receptor (Ah)
row,SMILES,EC50 [µM]
1,Clc1cc(Cl)c2c(c1)oc1cc(Cl)c(Cl)c(Cl)c12,0.4
2,Clc1cc2oc3c(Cl)cccc3c2c(Cl)c1Cl,0.35
3,Brc1cc(Br)c2c(c1)Oc1cc(Br)cc(Br)c1O2,0.0929
4,Brc1ccc2c(c1)Oc1ccc(Br)cc1O2,0.0155
5,Clc1cc2c(cc1Cl)Oc1c(Cl)c(Cl)c(Cl)c(Cl)c1O2,0.28
6,Clc1cc(-c2ccc(Cl)c(Cl)c2Cl)cc(Cl)c1Cl,5
7,Clc1cc(Cl)c(-c2cc(Cl)c(Cl)c(Cl)c2)cc1Cl,16
8,Clc1cc2c(cc1Cl)Oc1c(Cl)cccc1O2,0.22
9,Clc1cc(Cl)c2c(c1)Oc1cc(Cl)c(Cl)cc1O2,0.794
10,Clc1ccc2c(c1)Oc1cc(Cl)c(Cl)cc1O2,0.071
11,Clc1cc2oc3c(Cl)cc(Cl)c(Cl)c3c2cc1Cl,1.3
12,Clc1cc2c(cc1Cl)Oc1cc(Br)c(Br)cc1O2,0.00148
13,Brc1ccc2c(c1)Oc1cc(Br)c(Br)cc1O2,0.00117
14,Clc1c(Cl)c(Cl)c2c(c1Cl)Oc1c(Cl)c(Cl)c(Cl)c(Cl)c1O2,10
15,Clc1ccc(-c2cc(Cl)c(Cl)c(Cl)c2Cl)cc1Cl,7.1
16,Clc1ccc2oc3c(Cl)cc(Cl)c(Cl)c3c2c1,10
17,Clc1cc(Cl)c2c(c1Cl)Oc1ccccc1O2,13
18,Clc1cc2oc3cc(Cl)c(Cl)cc3c2cc1Cl,0.041
19,Clc1ccc2c(c1)oc1cc(Cl)c(Cl)c(Cl)c12,0.219
20,Clc1ccc2c(oc3c(Cl)cc(Cl)c(Cl)c32)c1Cl,0.0678
21,Clc1cc2c(oc3c(Cl)cccc32)c(Cl)c1Cl,0.35
22,Clc1cc(Cl)c2oc3cc(Cl)c(Cl)cc3c2c1,0.22

row,SMILES,EC50 [µM]
1,Clc1cc2c(oc3c(Cl)cc(Cl)c(Cl)c32)c(Cl)c1Cl,8.3
2,Clc1cc(Cl)c2oc3c(Cl)cc(Cl)c(Cl)c3c2c1,3.1
3,Brc1cc(Br)c2c(c1)Oc1cc(Br)c(Br)cc1O2,0.002
4,Clc1cc2c(cc1Cl)Oc1c(cc(Cl)c(Cl)c1Cl)O2,0.0794
5,Clc1ccc(-c2cc(Cl)c(Cl)cc2Cl)cc1Cl,9.1
6,Clc1cc2oc3cc(Cl)c(Cl)c(Cl)c3c2cc1Cl,0.0741
7,Clc1cc2c(cc1Br)Oc1cc(Br)c(Cl)cc1O2,0.000447
8,Clc1cc(Cl)c2c(c1)oc1c(Cl)cc(Cl)c(Cl)c12,20
9,Clc1ccc2oc3c(Cl)c(Cl)c(Cl)cc3c2c1,0.2
10,Clc1cccc2c1Oc1ccccc1O2,100
11,Clc1ccc(-c2cc(Cl)c(Cl)c(Cl)c2)c(Cl)c1,14.1
12,Brc1cc2c(cc1Br)Oc1c(cc(Br)c(Br)c1Br)O2,0.00661
13,Clc1ccc(-c2cc(Cl)c(Cl)c(Cl)c2)cc1,28
14,Clc1cc2c(cc1Cl)Oc1c(ccc(Cl)c1Cl)O2,0.16
15,Clc1cc(Cl)c2c(c1)oc1c(Cl)cccc12,4.37
16,Clc1cc2c(cc1Cl)Oc1cc(Br)c(Cl)cc1O2,0.0115
17,Clc1cc(Cl)c(-c2cc(Cl)c(Cl)c(Cl)c2)c(Cl)c1,99.1
18,Brc1ccc2c(c1)Oc1ccccc1O2,0.295
19,Clc1cccc2c1oc1ccccc12,1000
20,Clc1ccc2c(c1)oc1ccccc12,42
21,Clc1cc(-c2ccccc2)c(Cl)c(Cl)c1Cl,140
22,Clc1ccc(-c2cc(Cl)c(Cl)c(Cl)c2Cl)cc1,4.1

row,SMILES,EC50 [µM]
1,Clc1cc(Cl)c2c(c1)oc1c(Cl)c(Cl)c(Cl)cc12,0.2
2,Clc1cc2oc3c(Cl)c(Cl)c(Cl)cc3c2cc1Cl,0.0151
3,Clc1ccc2c(c1)oc1c(Cl)c(Cl)c(Cl)cc12,0.0251
4,Clc1cc2c(cc1Cl)Oc1c(Cl)c(Cl)cc(Cl)c1O2,1.1
5,Clc1ccc2c(c1)Oc1c(Cl)c(Cl)c(Cl)c(Cl)c1O2,6.46
6,Clc1cc(Cl)c2c(c1)oc1ccc(Cl)cc12,85.1
7,Clc1ccc(-c2ccc(Cl)c(Cl)c2Cl)cc1Cl,4.27
8,Brc1cc2c(cc1Br)Oc1cc(Br)c(Br)cc1O2,0.0015
9,Clc1ccc2c(c1)Oc1cc(Cl)ccc1O2,3.2
10,Clc1cc2oc3c(Cl)c(Cl)cc(Cl)c3c2cc1Cl,0.2
11,Clc1cc2oc3c(Cl)c(Cl)c(Cl)c(Cl)c3c2cc1Cl,0.23
12,Clc1cc2c(oc3c(Cl)c(Cl)c(Cl)cc32)c(Cl)c1Cl,0.0468
13,Clc1cc2c(oc3cc(Cl)c(Cl)c(Cl)c32)c(Cl)c1Cl,0.27
14,Clc1c(Cl)c(Cl)c2c(c1Cl)Oc1ccccc1O2,1.3
15,Clc1ccc(-c2ccc(Cl)c(Cl)c2)cc1Cl,0.71
16,Clc1ccc2oc3c(Cl)c(Cl)c(Cl)c(Cl)c3c2c1,0.12
17,Brc1cc2c(cc1Br)Oc1c(Br)c(Br)cc(Br)c1O2,0.017
18,"Clc1cc(Cl)c(-c2cc(Cl)c(Cl)cc2Cl)cc1Cl [2,2',4,4',5,5'-HEXACHLOROBIPHENYL]",79.4
19,"Clc1cc2c(cc1Cl)Oc1cc(Cl)c(Cl)cc1O2 [2,3,7,8-TETRACHLORODIBENZO-P-DIOXIN]",0.01
20,Clc1ccc(-c2cc(Cl)c(Cl)c(Cl)c2)cc1Cl [POLYCHLORINATED BIPHENYL 126],0.13

# Biological target: GABA-A receptor; anion channel
# Description: Inhibition on Benzodiazepine receptor
row,pIC50,SMILES
1,7.03,CC(C)COc1cc2c(cn1)[nH]c1ccccc12
2,6.45,CC(C)(C)C(=O)c1cc2c3ccccc3nc-2c[nH]1
3,8.4,c1ccc2c(c1)[nH]c1c2ncc2[nH]c3ccccc3c21
4,8,CC(C)(C)OC(=O)c1cc2c3ccccc3nc-2c[nH]1
5,10,COc1ccc(-n2nc3c4ccccc4[nH]cc-3c2=O)cc1
6,5.12,CCc1nc(C(=O)OC)cc2c1[nH]c1ccccc12
7,7.35,Clc1cc2c(cn1)[nH]c1ccccc12
8,5.71,c1ccc2c(c1)[nH]c1c2ccc2[nH]c3ccccc3c21
9,5.77,CCOC(=O)c1cc2c(cn1)sc1ccccc12
10,7.17,Cc1cccc2c1[nH]c1c3c4ccccc4nc-3c[nH]c12
11,6.8,Cn1c2ccccc2c2[nH]cc3nc4ccccc4c-3c21
12,5.07,CCOC(=O)c1cc2c(cn1)oc1ccccc12
13,6.33,CCC(C)Oc1cc2c3ccccc3nc-2c[nH]1 (configuration not stated)
14,6,c1ccc(COc2cc3c4ccccc4nc-3c[nH]2)cc1

row,SMILES,pIC50
1,CCCC(=O)c1cc2c(cn1)[nH]c1ccccc12,7.64
